Laboratory results published in patent US6376543B1, “Secondary cataract inhibitor” (Kissei Pharmaceuticals Co., Ltd., priority 1996, dated 2002).

Test system: rat lens epithelial cells
Test: Inhibitory activity on lens epithelial cell proliferation
Type: cell-based
Settings: rat lens epithelial cells cultured 4 days in DMEM with 10% FBS and various concentrations of Tranilast; viable cells counted by hemocytometer; FIG. 1
Procedure: Inhibitory Activity on Lens Epithelial Cell Proliferation
(1) Culture of Rat Lens Epithelial Cells
Rat crystalline lens was harvested and cut into narrow strips. The strips were adhered to a culture plate and subcultured in Dulbecco's modified Eagle's Medium (DMEM) containing 10% fetal calf serum (FBS) at 37° C. in an atmosphere of 5% CO2 in air for 4 days. On day 4 (at the point that lens epithelial cells had migrated and profilated from crystalline lens tissues), the medium was aspirated and cells were gently washed with phosphate-buffered saline (PBS(−)). Then, the PBS(−) was aspirated, an aliquot of 0.25% trypsin solution containing 0.02% EDTA was added to the culture plate, and the morphology of the cells was observed under phase-contrast microscopy. When cells were going to be round, an equal value of DMEM containing 10% FBS was added to the trypsin solution to stop the action of trypsin. […]
Cell suspension (2×10^4 cells/0.1 ml) and DMEM medium (1.9 ml) containing various concentration of Tranilast and 10% FBS were added to a culture plate (60 mm), and cultured at 37° C. in an atmosphere of 5% CO2 in air. […] After harvesting cells from the plate by pipetting using a pasture pipette, the number of viable cells was counted using a hemocytometer. […]
Mean and standard variation values of each group were calculated. […]

SMILES: COc1ccc(C=CC(=O)Nc2ccccc2C(=O)O)cc1OC [Tranilast, N-(3,4-dimethoxycinnamoyl)anthranilic acid]
- proliferation of lens epithelial cells (number of viable cells): significantly suppressed the proliferation of lens epithelial cells in a concentration-dependent manner
